biological target: T1, human H4 receptor (Homo sapiens, UniProt Q9H3N8); test: [3H]Histamine binding on membranes of CHO cells stably expressing human H4 receptor
T1 construct: expressed in transfected cells
Description: CHO cells stably expressing human H4 receptor were grown until sub-confluence and centrifuged at 300 g 15 minutes at 4° C. Pellets were resuspended in buffer I Tris-HCl 50 mM, MgCl2 10 mM, NaCl 140 mM, pH=7.4 supplemented by a 1/50 dilution of a mix of protease inhibitors. The obtained suspension is stirred gently and submitted to a […] exerted through a syringe. The cell lysate is then centrifuged at 300 g 15 minutes at 4° C. in order to eliminate nucleus and cell scraps. The obtained supernatant was then centrifuged at 48000 g for 30 minutes at 4° C. The final pellet is resuspended in buffer I with a potter homogenizer. Aliquots were frozen in liquid nitrogen and stored until use at −80° C. Protein content is measured by the Bradford method.
Defreezed membranes were diluted at a final concentration of 20 μg/180 μL/well in a binding buffer containing 50 mM Tris/HCl, 0.5 mM EDTA, pH=7.4 and distributed in 96 well polystyrene microplate. [^3H] […] Non specific binding was estimated in the presence of 10 μM BP1.2404 (JNJ 7777120). The reaction was terminated by filtration through GF/B filters pre-soaked 2 hours at 4° C. in […]. Filters were rinsed 3 times with 250 μl of ice cold incubation binding buffer.
The filter-bound radioactivity was measured in a liquid scintillation counter Microbeta TRILUX® with 50 μl of scintillation fluid.
The hH4 binding investigated by use of [^3H]

T1 sequence (Q9H3N8 whole entry): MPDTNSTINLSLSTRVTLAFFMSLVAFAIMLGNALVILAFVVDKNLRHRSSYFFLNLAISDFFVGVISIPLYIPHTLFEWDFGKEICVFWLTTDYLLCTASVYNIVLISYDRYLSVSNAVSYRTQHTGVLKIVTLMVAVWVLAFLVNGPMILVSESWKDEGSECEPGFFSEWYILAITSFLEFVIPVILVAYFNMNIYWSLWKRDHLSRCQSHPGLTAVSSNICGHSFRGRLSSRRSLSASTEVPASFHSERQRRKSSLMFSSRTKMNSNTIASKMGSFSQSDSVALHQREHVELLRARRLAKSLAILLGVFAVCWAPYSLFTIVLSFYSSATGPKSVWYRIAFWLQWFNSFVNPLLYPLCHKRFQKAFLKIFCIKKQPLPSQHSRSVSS

CN1CCC(OC(c2cccc(OCCCO)c2)c2nc3ccccc3s2)CC1 (stereo not shown) [Example 258, 3-{3-[benzothiazol-2-yl(1-methylpiperidin-4-yloxy)methyl]phenoxy}propan-1-ol] and CN1CCC(OC(c2cccc(OCCCF)c2)c2nc3ccccc3s2)CC1 (stereo not shown) [Example 176, 2-[[3-(3-fluoropropoxy)phenyl](1-methylpiperidin-4-yloxy)methyl]benzothiazole] cannot be ordered by Ki or IC50 activity class: < 0.3 µM for the first, < 0.03 µM for the second.

CN1CCC(OC(c2cccc(C#CCCNC(=N)N)c2)c2nc3ccccc3s2)CC1 (stereo not shown) [Example 372, N-(4-{3-[benzothiazol-2-yl(1-methylpiperidin-4-yloxy)methyl]phenyl}but-3-ynyl)guanidine] and CN1CCC(OC(c2cccc(C#CCCCNC(=N)N)c2)c2nc3ccccc3[nH]2)CC1 (stereo not shown) [Example 358, N-(5-{3-[(1H-benzimidazol-2-yl)(1-methylpiperidin-4-yloxy)methyl]phenyl}pent-4-ynyl)guanidine] cannot be ordered by Ki or IC50 activity class: < 0.03 µM for the first, < 0.03 µM for the second.

CN1CCC(OC(c2cccc(SCCn3ccnn3)c2)c2nc3ccccc3s2)CC1 (stereo not shown) [Example 241, 2-{(1-methylpiperidin-4-yloxy)[3-(2-[1,2,3]triazol-1-yl-ethylsulfanyl)phenyl]methyl}benzothiazole] and CN1CCC(OC(c2cccc(SCCO)c2)c2nc3ccccc3s2)CC1 (stereo not shown) [Example 158, 2-{3-[benzothiazol-2-yl(1-methylpiperidin-4-yloxy)methyl]phenylsulfanyl}ethanol] cannot be ordered by Ki or IC50 activity class: < 0.3 µM for the first, < 0.03 µM for the second.

CN1CCC(OC(c2cccc(SCCc3cnccn3)c2)c2nc3ccccc3s2)CC1 (stereo not shown) [Example 233, 2-{(1-methylpiperidin-4-yloxy)[3-(2-pyrazin-2-yl-ethylsulfanyl)phenyl]methyl}benzothiazole] and CN1CCC(OC(c2cccc(CCCCO)c2)c2nc3ccccc3s2)CC1 (stereo not shown) [Example 238, 4-{3-[benzothiazol-2-yl(1-methylpiperidin-4-yloxy)methyl]phenyl}butan-1-ol] cannot be ordered by Ki or IC50 activity class: < 0.3 µM for the first, < 1 µM for the second.

CN1CCC(OC(c2cccc(CCCCNC(=N)N)c2)c2nc3ccccc3[nH]2)CC1 (stereo not shown) [Example 308, N-(4-{3-[(1H-benzimidazol-2-yl)(1-methylpiperidin-4-yloxy)methyl]phenyl}butyl)guanidine] and CN1CCC(OC(c2cccc(C=CCCCO)c2)c2nc3ccccc3[nH]2)CC1 (stereo not shown) [Example 389, 5-{3-[(1H-benzimidazol-2-yl)(1-methylpiperidin-4-yloxy)methyl]phenyl}pent-4-en-1-ol] cannot be ordered by Ki or IC50 activity class: < 0.3 µM for the first, < 0.3 µM for the second.

COc1ccc(F)c(C(OC2CCN(C)CC2)c2nc3ccccc3[nH]2)c1 (stereo not shown) [Example 486] and CCSc1ccc(F)c(C(OC2CCN(C)CC2)c2nc3ccccc3[nH]2)c1F (stereo not shown) [Example 520] cannot be ordered by Ki or IC50 activity class: < 0.03 µM for the first, < 0.3 µM for the second.

CN1CCC(OC(c2cccc(SCCCCN)c2)c2nc3cc(F)c(F)cc3[nH]2)CC1 (stereo not shown) [Example 495] and CN1CCC(OC(c2cccc(-c3cccc(N)c3)c2)c2nc3ccccc3[nH]2)CC1 (stereo not shown) [Example 87, 3′-[(1H-benzimidazol-2-yl)(1-methylpiperidin-4-yloxy)methyl]biphenyl-3-ylamine] cannot be ordered by Ki or IC50 activity class: < 0.03 µM for the first, < 0.3 µM for the second.

CN1CCC(OC(c2cccc(N3CCC(O)(C(F)(F)F)C3)c2)c2nc3ccccc3s2)CC1 (stereo not shown) [Example 460, 1-{3-[benzothiazol-2-yl(1-methylpiperidin-4-yloxy)methyl]phenyl}-3-trifluoromethylpyrrolidin-3-ol] and CN1CCC(OC(c2cccc(OC3CCC(N)CC3)c2)c2nc3ccccc3s2)CC1 (stereo not shown) [Example 477] cannot be ordered by Ki or IC50 activity class: < 1 µM for the first, < 1 µM for the second.

CN1CCC(OC(c2cccc(OC3CCNC3)c2)c2nc3ccccc3[nH]2)CC1 (stereo not shown) [Example 461] and CN1CCC(OC(c2nc3ccccc3[nH]2)c2cccs2)CC1 (stereo not shown) [Example 546] cannot be ordered by Ki or IC50 activity class: < 0.3 µM for the first, < 0.3 µM for the second.

For CN1CCC(OC(c2cccc(C#CCCCCN)c2)c2nc3ccccc3n2C)CC1 (stereo not shown) [Example 480, 6-{3-[(1-methyl-1H-benzimidazol-2-yl)(1-methylpiperidin-4-yloxy)methyl]phenyl}hex-5-ynylamine], the Ki or IC50 activity class was < 0.3 µM.
